Data reported in article PMC7721954, “Preclinical comparison of four [^18F, ^natGa]rhPSMA-7 isomers: influence of the stereoconfiguration on pharmacokinetics” (EJNMMI Research, 2020).

Tests used:
LNCaP cells = test: Internalization into LNCaP cells relative to ([125I]I-BA)KuE; format: cell-based; conditions: 1 h, 37 °C, percentage of reference ligand ([125I]I-BA)KuE, n = 3-6
Experimental: Competitive binding studies were determined on LNCaP cells (1.5 × 10^5 cells in 1 mL/well) after incubation at 4 °C for 1 h, using (((S)-1-carboxy-5-(4-([^125I]iodo)benzamido)pentyl)carbamoyl)-L-glutamic acid (([^125I]I-BA)KuE; 0.2 nM/well) as reference radioligand (n = 5–9). Internalization studies of the radiolabeled ligands (0.5 nM/well) were performed on LNCaP cells (1.25 × 10^5 cells in 1 mL/well) at 37 °C for 1 h and accompanied by ([^125I]I-BA)KuE (0.2 nM/well), as reference. Data were corrected for non-specific binding and normalized to the specific internalization observed for the reference (n = 3–6). A detailed description of the experimental procedures was previously published.

human serum albumin = molecular target: T1, human serum albumin (Homo sapiens, UniProt P02768); test: Human serum albumin binding on Chiralpak HSA column; format: in vitro ADME
T1 construct: purchased
T1 sequence (P02768 25-609): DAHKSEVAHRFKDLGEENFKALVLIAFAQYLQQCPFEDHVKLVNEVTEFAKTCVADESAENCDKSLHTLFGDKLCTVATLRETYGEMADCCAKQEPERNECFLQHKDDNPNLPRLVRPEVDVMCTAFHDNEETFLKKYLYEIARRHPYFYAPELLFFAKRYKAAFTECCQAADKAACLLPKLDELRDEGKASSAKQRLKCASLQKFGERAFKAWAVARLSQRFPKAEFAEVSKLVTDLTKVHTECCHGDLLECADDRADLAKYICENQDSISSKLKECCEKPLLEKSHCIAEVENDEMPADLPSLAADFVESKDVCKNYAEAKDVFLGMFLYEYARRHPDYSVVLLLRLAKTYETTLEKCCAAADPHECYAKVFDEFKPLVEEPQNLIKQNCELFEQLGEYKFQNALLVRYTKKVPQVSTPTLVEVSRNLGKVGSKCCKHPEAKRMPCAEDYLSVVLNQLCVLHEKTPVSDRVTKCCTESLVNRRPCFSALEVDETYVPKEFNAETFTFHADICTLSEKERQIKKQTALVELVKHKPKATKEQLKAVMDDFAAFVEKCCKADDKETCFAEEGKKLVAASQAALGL
Experimental: Approximately 1 MBq of the ^18F-ligand was dissolved in 1 mL of a 1:1 mixture (v/v) of phosphate-buffered saline (PBS, pH 7.4) and n-octanol (n = 18–23). After vigorous mixing of the suspension for 3 min, the vial was centrifuged at 15,000 × g for 3 min and 100 μL aliquots of both layers were measured in a γ-counter. HSA binding of ^19F-^natGa-rhPSMA ligands was determined according to a previously published procedure.

[1] = tested on: LNCaP tumor-bearing male CB-17 SCID mice; test: Biodistribution 1 h p.i.; format: in vivo
Experimental: (§1) LNCaP tumor xenografts were established in 6–8 weeks old male CB-17 SCID mice as described previously.
(§2) 1–3 MBq (0.2 nmol) of the [^18F, ^natGa]rhPSMA inhibitors were injected into the tail vein of LNCaP tumor-bearing male CB-17 SCID mice that were sacrificed 1 h post injection (p.i.) (n = 4 for 7.1, n = 5 for 7.2, n = 4 for 7.3, n = 5 for 7.4 and n = 3 for 7). Selected organs were removed, weighed, and measured in a γ-counter. For competition studies, 8 mg/kg of 2-PMPA (2-(Phosphonomethyl)-pentandioic acid) were co-administered (n = 3).

[2] = tested on: LNCaP tumor-bearing male CB-17 SCID mice; test: Biodistribution 1 h p.i. with competition (co-injection of 2-PMPA); format: in vivo; conditions: co-injected with 2-PMPA (8 mg/kg), n = 3
Experimental: as §1, §2

LNCaP tumor-bearing mice = test: Differential uptake and excretion pattern of isomers after injection of the diastereomeric mixture (radio-HPLC); format: in vivo; conditions: blood, liver, kidney and tumor, 30 min p.i., n = 4
Experimental: With the intention to identify even marginal differences in the in vivo behavior, all four [^18F, ^natGa]rhPSMA-7 isomers were co-evaluated in one single tumor-bearing mouse in order to quantify the differential uptake and excretion pattern of each isomer. For this purpose, the diastereomeric mixture [^18F, ^natGa]rhPSMA-7 was produced in high molar activity (AM) of 247–349 GBq/µmol (at end of synthesis) and the abundance of each isomer was determined by radio-HPLC. Mice (n = 4) were injected with [^18F, ^natGa]rhPSMA-7 (180–280 MBq, 0.9–1.0 nmol) and left under anesthesia. After 30 min p.i., they were sacrificed and urine, blood, liver, kidneys and tumor were collected and processed. Radioactivity was extracted from solid tissues by means of a Potter–Elvehjem tissue grinder (n = 1) or a ball mill (n = 3) and separated from the protein fraction by subsequent cartridge-based solid-phase extraction (SPE). Blood samples were diluted, centrifuged and the supernatant was purified by SPE (see supporting information). Urine and extracts from tissue samples were then analyzed by radio-HPLC to quantify the fraction of each isomer in each sample. Finally, the relative percentage difference between the abundance of each isomer in the injected diastereomeric mixture (values taken from the quality control) and the abundance of the respective isomer in each analyzed tissue or body fluid was calculated. […] PeakFit allows for automated nonlinear separation, analysis and quantification of HPLC elution profiles by deconvolution procedures that uses a Gaussian response function with a Fourier deconvolution/filtering algorithm (see Additional file 1: Fig. 7).
Extraction via the Potter-Elvehjem Tissue Grinder. Tumor and kidneys were separately homogenized in the tissue homogeniser with 1 mL of extraction buffer (850 μL 1 M HEPES pH 7.4, 100 μL 20 mM PMPA and 100 μL 1 M NaCl) for 30 min. The resulting homogenate was collected and centrifuged at 13000×g for 5 min. Subsequently, the supernatant was collected, centrifuged again (13000×g, 5 min) and loaded on a Strata X cartridge (33 μm Polymeric Reversed Phase 500 mg) preconditioned with 5 mL MeOH, followed by 5 mL H2O. After washing with 5 mL H2O, the cartridge was eluted with a 3:2 mixture (v/v) of MeCN in H2O supplemented with 1% TFA. For radio-HPLC analysis the eluates were diluted with water.
Extraction via the MM-400 Ball Mill. The samples (tumor, kidney, liver) were separately homogenized in a 2 mL tube together with 3 grinding balls (3 mm diameter) and 1 mL of extraction buffer (850 μL 1 M HEPES pH 7.4, 100 μL 20 mM PMPA and 100 μL 1 M NaCl) for 10 min at 30 Hz. The homogenate was centrifuged at 13 000×g for 5 min and the supernatant was collected. […]

CC(C)(C)[Si]([18F])(c1ccc(C(=O)NC[C@H](NC(=O)CC[C@@H](C(=O)O)N2CCN(CC(=O)[O-])CCN(CC(=O)[O-])CCN(CC(=O)[O-])CC2)C(=O)N[C@H](CCCCNC(=O)CCC(=O)NCCC[C@@H](NC(=O)CC[C@H](NC(=O)N[C@@H](CCC(=O)O)C(=O)O)C(=O)O)C(=O)O)C(=O)O)cc1)C(C)(C)C.[Ga+3] [[^18F, ^natGa]rhPSMA-7.4]
Internalization (internalized activity) (LNCaP cells): 207 ± 4 % of reference
HSA-binding (human serum albumin): 97%
Biodistribution Adrenals [1]: 3.57 ± 2.38 % ID/g
Biodistribution Blood [1]: 1.15 ± 0.30 % ID/g
Biodistribution Bone [1]: 0.62 ± 0.30 % ID/g
Biodistribution Heart [1]: 0.71 ± 0.26 % ID/g
Biodistribution Intestine [1]: 0.37 ± 0.09 % ID/g
Biodistribution Kidneys [1]: 153 ± 80.3 % ID/g
Biodistribution Liver [1]: 0.69 ± 0.20 % ID/g
Biodistribution Lung [1]: 1.59 ± 0.61 % ID/g
Biodistribution Muscle [1]: 0.31 ± 0.08 % ID/g
Biodistribution Pancreas [1]: 0.50 ± 0.30 % ID/g
Biodistribution Spleen [1]: 18.4 ± 9.77 % ID/g
Biodistribution Stomach [1]: 0.25 ± 0.06 % ID/g
Biodistribution Tumor [1]: 18.9 ± 3.27 % ID/g
Biodistribution Adrenals [2]: 0.03 ± 0.04 % ID/g
Biodistribution Blood [2]: 0.82 ± 0.17 % ID/g
Biodistribution Bone [2]: 1.0 ± 0.8 % ID/g
Biodistribution Heart [2]: 0.37 ± 0.05 % ID/g
Biodistribution Intestine [2]: 0.36 ± 0.08 % ID/g
Biodistribution Kidneys [2]: 7.2 ± 2.4 % ID/g
Biodistribution Liver [2]: 0.48 ± 0.14 % ID/g
Biodistribution Lung [2]: 0.74 ± 0.14 % ID/g
Biodistribution Muscle [2]: 0.20 ± 0.05 % ID/g
Biodistribution Pancreas [2]: 0.18 ± 0.09 % ID/g
Biodistribution Spleen [2]: 0.28 ± 0.15 % ID/g
Biodistribution Stomach [2]: 0.20 ± 0.07 % ID/g
Biodistribution Tumor [2]: 0.99 ± 0.19 % ID/g
Abundance (enrichment) of the isomer in tissue compared to time point of injection (LNCaP tumor-bearing mice): lowest enrichment in blood, liver and kidney, but also the lowest uptake by tumors

CC(C)(C)[Si]([18F])(c1ccc(C(=O)NC[C@H](NC(=O)CC[C@H](C(=O)O)N2CCN(CC(=O)[O-])CCN(CC(=O)[O-])CCN(CC(=O)[O-])CC2)C(=O)N[C@H](CCCCNC(=O)CCC(=O)NCCC[C@@H](NC(=O)CC[C@H](NC(=O)N[C@@H](CCC(=O)O)C(=O)O)C(=O)O)C(=O)O)C(=O)O)cc1)C(C)(C)C.[Ga+3] [[^18F, ^natGa]rhPSMA-7.2]
Internalization (internalized activity) (LNCaP cells): 192 ± 16 % of reference
HSA-binding (human serum albumin): 98%
Biodistribution Adrenals [1]: 1.3 ± 0.8 % ID/g
Biodistribution Blood [1]: 0.56 ± 0.20 % ID/g
Biodistribution Bone [1]: 0.31 ± 0.24 % ID/g
Biodistribution Heart [1]: 0.32 ± 0.13 % ID/g
Biodistribution Intestine [1]: 0.18 ± 0.07 % ID/g
Biodistribution Kidneys [1]: 87.6 ± 28.8 % ID/g
Biodistribution Liver [1]: 0.35 ± 0.08 % ID/g
Biodistribution Lung [1]: 0.89 ± 0.38 % ID/g
Biodistribution Muscle [1]: 0.13 ± 0.07 % ID/g
Biodistribution Pancreas [1]: 0.21 ± 0.08 % ID/g
Biodistribution Spleen [1]: 10.1 ± 6.3 % ID/g
Biodistribution Stomach [1]: 0.19 ± 0.08 % ID/g
Biodistribution Tumor [1]: 6.5 ± 2.3 % ID/g
Biodistribution Adrenals [2]: 0.07 ± 0.10 % ID/g
Biodistribution Blood [2]: 1.1 ± 0.31 % ID/g
Biodistribution Bone [2]: 0.57 ± 0.39 % ID/g
Biodistribution Heart [2]: 0.47 ± 0.09 % ID/g
Biodistribution Intestine [2]: 0.33 ± 0.10 % ID/g
Biodistribution Kidneys [2]: 10.9 ± 1.0 % ID/g
Biodistribution Liver [2]: 0.46 ± 0.07 % ID/g
Biodistribution Lung [2]: 1.1 ± 0.32 % ID/g
Biodistribution Muscle [2]: 0.09 ± 0.03 % ID/g
Biodistribution Pancreas [2]: 0.12 ± 0.05 % ID/g
Biodistribution Spleen [2]: 0.26 ± 0.07 % ID/g
Biodistribution Stomach [2]: 0.21 ± 0.06 % ID/g
Biodistribution Tumor [2]: 1.0 ± 0.13 % ID/g
Abundance (enrichment) of the isomer in tissue compared to time point of injection (LNCaP tumor-bearing mice): lowest enrichment in blood, liver and kidney, but also the lowest uptake by tumors
